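These data come from cells grown in 96-well plates and exposed to compound for 48 hours at five concentrations. The concentration for 50% growth inhibition is given as GI50. TGI is the concentration that stops growth completely.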
Key:
Test in all cases: NCI-60 cell line screen, 48 h
[1] = test system: OVCAR-4 ovarian
[2] = test system: CCRF-CEM leukemia
[3] = test system: MCF7 breast
[4] = test system: MDA-MB-231 breast
[5] = test system: OVCAR-5 ovarian
[6] = test system: SR leukemia
[7] = test system: NCI-H522 lung
[8] = test system: NCI-H226 lung
[9] = test system: K-562 leukemia
[10] = test system: LOX IMVI melanoma
[11] = test system: NCI-H460 lung
[12] = test system: UO-31 renal
[13] = test system: SNB-19 CNS
[14] = test system: SF-539 CNS
[15] = test system: SF-295 CNS
[16] = test system: DU-145 prostate
[17] = test system: 786-0 renal
[18] = test system: UACC-62 melanoma
[19] = test system: RPMI-8226 leukemia
[20] = test system: UACC-257 melanoma
[21] = test system: SK-OV-3 ovarian
[22] = test system: SNB-75 CNS
[23] = test system: HCC-2998 colon
[24] = test system: NCI/ADR-RES ovarian
[25] = test system: COLO 205 colon
[26] = test system: OVCAR-3 ovarian
[27] = test system: SK-MEL-2 melanoma
[28] = test system: HCT-15 colon
[29] = test system: SK-MEL-28 melanoma
[30] = test system: SN12C renal
[31] = test system: M14 melanoma
[32] = test system: A498 renal
[33] = test system: HCT-116 colon
[34] = test system: TK-10 renal
[35] = test system: HT29 colon
[36] = test system: SK-MEL-5 melanoma
[37] = test system: HOP-62 NSCLC
[38] = test system: MOLT-4 leukemia
[39] = test system: SW-620 colon
[40] = test system: T-47D breast
[41] = test system: OVCAR-8 ovarian
[42] = test system: CAKI-1 renal
[43] = test system: RXF 393 renal
[44] = test system: EKVX NSCLC
[45] = test system: HS 578T breast
[46] = test system: MDA-MB-435
[47] = test system: KM12 colon
[48] = test system: SF-268 CNS
[49] = test system: NCI-H23 lung
[50] = test system: BT-549 breast
[51] = test system: MALME-3M melanoma
[52] = test system: A549 NSCLC
[53] = test system: HL-60(TB) leukemia
[54] = test system: IGROV1 ovarian
[55] = test system: HOP-92 NSCLC
[56] = test system: PC-3 prostate
[57] = test system: ACHN renal

Structure (SMILES): Cc1cc(OCc2n[nH]c(=S)n2/N=C/c2ccc(F)cc2)ccc1Cl
- GI50 [1]: 25.4 µM
- TGI [1]: 55.4 µM
- GI50 [2]: 25.7 µM
- TGI [2]: 70.2 µM
- GI50 [3]: 33.1 µM
- TGI [3]: > 100 µM
- GI50 [4]: 23.4 µM
- TGI [4]: 62.5 µM
- GI50 [5]: > 100 µM
- TGI [5]: > 100 µM
- GI50 [6]: 18.5 µM
- TGI [6]: 39.7 µM
- GI50 [7]: 21.7 µM
- TGI [7]: 54.8 µM
- GI50 [8]: 22.4 µM
- TGI [8]: 54.7 µM
- GI50 [9]: 20.8 µM
- TGI [9]: 54 µM
- GI50 [10]: 16.1 µM
- TGI [10]: 32.4 µM
- GI50 [11]: 28.6 µM
- TGI [11]: > 100 µM
- GI50 [12]: 29.5 µM
- TGI [12]: 91.6 µM
- GI50 [13]: 27.8 µM
- TGI [13]: 83.8 µM
- GI50 [14]: 25.8 µM
- TGI [14]: 57.4 µM
- GI50 [15]: 30.1 µM
- TGI [15]: > 100 µM
- GI50 [16]: 56.7 µM
- TGI [16]: > 100 µM
- GI50 [17]: 29.2 µM
- TGI [17]: 87.2 µM
- GI50 [18]: 20.1 µM
- TGI [18]: 41.8 µM
- GI50 [19]: 16.7 µM
- TGI [19]: 40.1 µM
- GI50 [20]: 26.4 µM
- TGI [20]: 62 µM
- GI50 [21]: 31.7 µM
- TGI [21]: 82.3 µM
- GI50 [22]: 22.7 µM
- TGI [22]: 69.2 µM
- GI50 [23]: 20.6 µM
- TGI [23]: 43.7 µM
- GI50 [24]: 29.3 µM
- TGI [24]: 87.3 µM
- GI50 [25]: 15.9 µM
- TGI [25]: 35.8 µM
- GI50 [26]: 22.9 µM
- TGI [26]: 49.4 µM
- GI50 [27]: 23.1 µM
- TGI [27]: 57.2 µM
- GI50 [28]: 19.2 µM
- TGI [28]: 47.2 µM
- GI50 [29]: 26.7 µM
- TGI [29]: 74.2 µM
- GI50 [30]: 19.6 µM
- TGI [30]: 37.1 µM
- GI50 [31]: 29 µM
- TGI [31]: > 100 µM
- GI50 [32]: 25.1 µM
- TGI [32]: 68.3 µM
- GI50 [33]: 23.3 µM
- TGI [33]: 53.1 µM
- GI50 [34]: 19.1 µM
- TGI [34]: 58 µM
- GI50 [35]: 18.9 µM
- TGI [35]: 37.7 µM
- GI50 [36]: 17.9 µM
- TGI [36]: 35 µM
- GI50 [37]: 81 µM
- TGI [37]: > 100 µM
- GI50 [38]: 19.4 µM
- TGI [38]: 51 µM
- GI50 [39]: 34.5 µM
- TGI [39]: > 100 µM
- GI50 [40]: 20.5 µM
- TGI [40]: 57.3 µM
- GI50 [41]: 38.8 µM
- TGI [41]: > 100 µM
- GI50 [42]: 42.8 µM
- TGI [42]: > 100 µM
- GI50 [43]: 22.4 µM
- TGI [43]: 46.8 µM
- GI50 [44]: 64.4 µM
- TGI [44]: > 100 µM
- GI50 [45]: 56.6 µM
- TGI [45]: > 100 µM
- GI50 [46]: 25.9 µM
- TGI [46]: > 100 µM
- GI50 [47]: 22.1 µM
- TGI [47]: 53.8 µM
- GI50 [48]: 30 µM
- TGI [48]: 86.7 µM
- GI50 [49]: 29.8 µM
- TGI [49]: 94 µM
- GI50 [50]: 48 µM
- TGI [50]: > 100 µM
- GI50 [51]: 25.1 µM
- TGI [51]: 56.5 µM
- GI50 [52]: 26.6 µM
- TGI [52]: 68.6 µM
- GI50 [53]: 18.3 µM
- TGI [53]: 47.2 µM
- GI50 [54]: 25.4 µM
- TGI [54]: 82.3 µM
- GI50 [55]: 32.6 µM
- TGI [55]: > 100 µM
- GI50 [56]: 29.2 µM
- TGI [56]: > 100 µM
- GI50 [57]: 31.2 µM
- TGI [57]: 87.5 µM

From PubChem BioAssay (NCI)
